Measured values taken from patent US6734175B2, “Treatments for obesity and methods for identifiying compounds useful for treating obesity” (Pfizer Inc., priority 2000, dated 2004).

Tests used:
melanocortin-4 receptors = target: T1, melanocortin-4 receptors (Homo sapiens, UniProt P32245); assay: [125I]AGRP competition binding assay; conditions: particularly melanocortin-4 receptors; qualitative statement
T1 construct: host or cells: membranes from unnamed cells expressing the receptor
Source text: (§1) The first radioligand binding assay is an [^125I]AGRP competition binding assay. Compounds that attenuate binding of [^125I]AGRP or AGRP would be detected in this assay. It is noted that compounds can attenuate the binding of AGRP to melanocortin 3 and/or 4 receptors by binding to melanocortin 3 and/or 4 receptors or by binding to AGRP itself. The second radioligand binding assay is an assay using radiolabeled melanocortin ligands, for example, [^125I]norleucine D-phenylalanine melanocyte stimulating hormone ([^125I]NDP-MSH). Membranes prepared from cells expressing either melanocortin 3 or 4 receptors are used in the radioligand binding assays. The preparation and use of [^125I]AGRP and [^125I]NDP-MSH is well known in the art. See, for example, Dang et al., Molecular Endocrinology, 13, 148-155 (1999). In addition, the preparation and use of membranes from cells expressing either melanocortin 3 or 4 receptors are also well known in the art. See, Bass, et al., Molecular Pharmacology, 50, 709-715 (1996).
[^125I] AGRP Competition Binding Assay
(§2) Specific Activity of [^125I]AGRP is 2200 Ci/mmole. The final concentration of [^125I]AGRP is 100 pM. Therefore, a 2 nM (20×) stock needs to be made in binding buffer. The concentration of [^125I]AGRP varies from 40-60 nM. [^125I]AGRP can be obtained from New England Nuclear, Boston, Mass.
(§3) The competition assay can be run using 96 well plates. […]

melanocortin receptors = assay: [125I]NDP-MSH competition binding assay; conditions: qualitative statement
Source text: as §1
[^125I]NDP-MSH Competition Binding Assay
as §2, with “of [^125I]NDP-MSH” for “of [^125I]AGRP”, “is 250” for “is 100”, “a 5” for “a 2”, “nM. [^125I]NDP-MSH” for “nM. [^125I]AGRP”
as §3

T1 sequence (P32245 whole entry): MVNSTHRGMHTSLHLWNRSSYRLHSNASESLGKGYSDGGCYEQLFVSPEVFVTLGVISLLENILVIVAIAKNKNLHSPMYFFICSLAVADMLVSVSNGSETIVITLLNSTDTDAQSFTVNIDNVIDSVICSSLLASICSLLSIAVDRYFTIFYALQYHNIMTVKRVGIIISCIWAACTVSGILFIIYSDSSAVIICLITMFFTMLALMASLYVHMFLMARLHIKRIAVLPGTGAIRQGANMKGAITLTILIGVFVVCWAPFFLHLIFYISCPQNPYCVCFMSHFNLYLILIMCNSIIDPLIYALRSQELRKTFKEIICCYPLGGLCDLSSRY

For `O=[N+]([O-])c1ccc(N2C3c4ccccc4CCN3N(c3ccc([N+](=O)[O-])cc3)C3c4ccccc4CCN32)cc1` (centres unmarked) [8,16-bis-(4-nitro-phenyl)-5,6,8,8a,13,14,16,16a-octahydro-[1,2,4,5]tetrazino[6,1-a;3,4-a′]diisoquinoline], the “binding of agouti-related protein to melanocortin receptors” value (melanocortin-4 receptors) was “attenuates the binding of agouti-related protein to melanocortin receptors” and the “binding of α-melanocyte stimulating hormone to melanocortin receptors” value (melanocortin receptors) was “does not attenuate the binding of α-melanocyte stimulating hormone to melanocortin receptors”.
